Measurements: patent US20090220435A1, “TIGHT JUNCTION MODULATING PEPTIDE COMPONENTS FOR ENHANCING MUCOSAL DELIVERY OF THERAPEUTIC AGENTS” (priority 2005, published 2009)

Legend:
Type in all cases: cell-based
[1] = test system: EpiAirway™ human-derived tracheal/bronchial epithelial cells; assay: Transepithelial electrical resistance (TER) across EpiAirway epithelial cell layer
[2] = test system: EpiAirway™ human-derived tracheal/bronchial epithelial cells; assay: FITC-dextran / sample permeation across epithelial cell monolayer
Method: A FITC labeled dextran with a molecular weight 3000 (FD3) was used to assess the efficacy of individual TJMP on epithelial cell monolayer permeation. The tissue insert plates were transferred to a 96-well receiver plate containing 200 μl of DPBS++ as basal media. The apical surface of each tissue culture insert was incubated with a 20 μl sample of a single test formulation (refer to Table 24 of Example 25 for details of test formulations) for one hour at 37° C. in the dark on a shaker (˜100 rpm). Following the 1-hour incubation period, underlying basal media samples were taken from each tissue culture insert and temporarily stored in the dark at room temperature until FD3 levels were quantified by fluorescence spectroscopy. For FD3 measurements, a 150 μl of basal media sample was transferred to a black, clear bottom 96-well plate. Fluorescence emission at 528/20 following excitation at 485/20 were measured using a FL×800 fluorescence plate reader from Biotek Instruments.
Each tissue insert will be placed in an individual well containing 1 ml of MatTek basal media. On the apical surface of the inserts, 25 μl of test formulation will be applied according to study design, and the samples will be placed on a shaker (˜100 rpm) for 1.5 h at 37° C. FITC-labeled dextran solution is added to inserts apically and a fluorescence measurement is made from the basolateral media after the incubation period. The concentration of FITC-dextran is expressed as a percent of the starting material applied to the cells. A FITC labeled dextran with a molecular weight 4000 (MW4000) was used to assess cargo size limitations on individual TJMP permeation. Of note, various size FITC-labeled dextrans are available to perform size limitation studies.
Fluorescein isothiocyanate (FITC) labeled Dextrin (MW 3,000) was added to the treatment mixture at 0.1-1 mg/ml. The treatment mixture was added to the side of the apical wall, and the plates were incubated at 37° C. in an orbital shaker (New Brunswick Scientific, Edison, N.J.) for the designated time at 100 rpm. At the end of incubation, triplicates of 200 ul of the basal medium were transferred to a dark-wall fluorescent reading plate. Fluorescent intensity at wavelength 470 nm was measured by a microplate fluorescence reader FLx800 (BIO-TEK INSTRUMENTS, INC, Winooski, Vt.). Serial dilutions of standard were used to obtain a standard curve and calculate the concentration. Permeability was measured in two ways, as the ratio of donor mass (the apical chamber) or as the ratio of acceptor mass (the basal chamber), expressed in percentage.

[3] = test system: EpiAirway™ human-derived tracheal/bronchial epithelial cells; assay: Cytotoxicity (LDH assay)
Method: The amount of cell death was assayed by measuring the loss of lactate dehydrogenase (LDH) from the cells using a CytoTox 96 Cytoxicity Assay Kit (Promega Corp., Madison, Wis.). Fifty microliters of sample was loaded into a 96-well assay plates. Fresh, cell-free culture medium was used as a blank. 50 μl of substrate solution was added to each well and the plates incubated for 30 minutes at room temperature in the dark. Following incubation, 50 μl of stop solution was added to each well and the plates read on an optical density plate reader at 490 nm.
The amount of cell death will be assayed by measuring the loss of lactate dehydrogenase (LDH) from the cells using a CytoTox 96 Cytotoxicity Assay Kit (Promega Corp., Madison, Wis.). Fifty microliters of sample will be loaded into a 96-well assay plates. Fresh, cell-free culture medium will be used as a blank. Fifty microliters of substrate solution will be added to each well and the plates incubated for 30 minutes at room temperature in the dark. Following incubation, 50 μl of stop solution will be added to each well and the plates read on an optical density plate reader at 490 nm. The measurement of LDH release into the basolateral media indicates relative cytotoxicity of the samples. One hundred percent lysis of control inserts with 0.3% Octylphenolpoly(ethyleneglycolether)×(TritonX-100) allows LDH values to be expressed as percentage of total lysis.
In some embodiments, The amount of cell death was assayed by measuring the release of lactate dehydrogenase (LDH) from the cells into the apical medium using a CytoTox 96 Cytotoxicity Assay Kit (Promega Corp., Madison, Wis.). One percent Octylphenolpoly (ethyleneglycolether)×(Triton X-100™) diluted in phosphate buffered saline (PBS) causes 100% lysis in cultured cells and served herein as a positive control for the LDH assay. Following the one hour incubation period with a test formulation (refer to Table 24 of Example 25 for details of test formulations), the total liquid volume of each insert was brought to a final volume of 200 μl with culture medium. The apical medium was then mixed by pipetting four times with a multichannel pipette set to a 100 μl volume. After mixing, a 100 μl sample from the apical side of each insert was transferred to a new 96-well plate. The apical media samples were sealed with a plate sealer and stored at room temperature for same day analysis or stored overnight at 4° C. for analysis the next day. To measure LDH levels, 5 μl of the 100 μl apical media sample was diluted in 45 μl DPBS in a new 96-well plate. Fresh, cell-free culture medium will be used as a blank. Fifty microliters of substrate solution was added to each well and incubated for 30 minutes at room temperature away from direct light. Following the 30 minute incubation, 50 μl of stop solution was added to each well. Optical density (OD) was measured at 490 nm with a uQuant absorbance plate reader from Biotek Instruments. The measurement of LDH release into the apical media indicates relative cytotoxicity of the samples. Percent cytotoxicity for each test formulation was calculated by subtracting the measured absorbance of the PBS control (basal level of LDH release) from the measured absorbance of the individual test formulation and then dividing that value by the measured absorbance for the 1% Triton X-100™ positive control, multiplied by 100.
An LDH assay was used to assess the cytotoxicity of the treatments. The LDH level was determined by CytoTox96 Non-Radioactive Cytotoxic Assay (Promega, Madison, Wis.) following the manufacturer's protocol. For basal-lateral LDH levels, triplicates of 50 ul of the basal medium were used to determine the LDH level. For apical LDH level, 150 ul of the diluted apical sample was removed by adding 150 ul of Epi-CM to the apical chamber, the medium was mixed by pipeting up and down, and 150 ul medium was removed and diluted 2× (for a final 8-fold dilution) for assay in triplicates of 50 ul.

[4] = 15 minute treatment at the peptide's optimal concentration
[5] = 60 minute treatment at the peptide's optimal concentration
[6] = 1000 μM, additional assay (in parenthesis)

Maleimide-GLGSLLKKAGKLKLKQPKSKRKV-amide [PN283]
TER reduction ([1]; 100 μM peptide): 39% | TER reduction ([1]; 500 μM peptide): 86% | TER reduction ([1]; 1000 μM peptide): 92% | percent permeation ([2]; 100 μM peptide): 0.7% | percent permeation ([2]; 500 μM peptide): 3.9% | percent permeation ([2]; 1000 μM peptide): 5.2% | % Perm 15 [2, 4]: 1.06% | % Perm 60 [2, 5]: 4.99% | permeation of FITC-dextran MW4000 ([2]; 60 minutes of incubation, peptide at optimal concentration): approximately 5% | Optimal Concentration ([2]; greatest TER reduction with highest permeability and no significant cytotoxicity): 1000 µM | LDH15 [3, 4]: 0.0007 | LDH60 [3, 5]: 0.032

CNGRCGGKKKLKLLLKLL [PN679]
% T0 TER ([1]; 25 μM, 1 h, pH 7): 70% | % T0 TER ([1]; 100 μM, 1 h, pH 7): 7% | % T0 TER ([1]; 250 μM, 1 h, pH 7): 2% | % T0 TER ([1]; 500 μM, 1 h, pH 7): −2% | % T0 TER ([1]; 1000 μM, 1 h, pH 7): −2% (−2%) | % T0 TER [1, 6]: −2% (−2%) | % FD3 Permeation ([2]; 25 μM, 1 h, FITC dextran MW 3000): 0% | % FD3 Permeation ([2]; 100 μM, 1 h, FITC dextran MW 3000): 7% | % FD3 Permeation ([2]; 250 μM, 1 h, FITC dextran MW 3000): 8% | % FD3 Permeation ([2]; 500 μM, 1 h, FITC dextran MW 3000): 10% | % FD3 Permeation ([2]; 1000 μM, 1 h, FITC dextran MW 3000): 10% (10%) | % FD3 Permeation [2, 6]: 10% (10%) | optimal dose ([2]; based on TER reduction, sample permeation and LDH release): 100 µM
